{"source": "patent EP0831877B1", "about": "“METABOLIC EFFECTS OF CERTAIN GLUTATHIONE ANALOGS” (TELIK, INC., priority 1995, dated 1996)", "key": {"[1]": {"test_system": "peripheral blood cells", "assay": "peripheral blood response to 5-FU with oral TER199 in mice", "format": "in vivo", "details": "150 mg/kg 5-FU IP, 24 hours later oral 150 mg/kg TER199, versus 5-FU alone", "procedure": "The mice were bled through the retroorbital plexus and the blood samples were analyzed for changes in blood counts."}, "[2]": {"test_system": "bone marrow GM-CFU", "assay": "carboplatin-induced GM-CFU suppression in mice", "format": "in vivo", "details": "TER199 120mg/kg, i.p., carboplatin 90 mg/kg", "procedure": "(§1) Bone marrows were harvested 24 hours after administration of the second drug."}, "[3]": {"test_system": "bone marrow GM-CFU", "procedure": "Bone marrows were harvested 24 hours after cisplatin administration.\nas §1"}, "[4]": {"test_system": "bone marrow GM-CFU", "assay": "5-fluorouracil-induced GM-CFU suppression in mice", "details": "for GM-CFU: harvest 48 hours after 5-FU", "quoted_text": "The control group was not treated with either drug. Bone marrows were harvested and GM-CFUs were determined 24 hours after the final injection.\nValues are the mean ± SE of three mice per point."}, "[5]": {"test_system": "HT4-1, a subclone of HT-29", "assay": "standard clonogenic assay, potentiation of drug toxicity, HT4-1", "quoted_text": "Four chemotherapeutic drugs, chlorambucil, adriamycin, mitomycin C and doxorubicin were used as the toxic agents. In these assays, the cells were seeded at 300 cells/well in 2 ml of medium in 6-well plates in the presence of the compounds used in the invention as the diethyl esters. […] After incubation for 1-2 hours to permit cells to attach, varying doses of the chemotherapeutic agents were added. At least three replicate wells were plated for each test condition and the plates were incubated for two weeks. […] IC50 values were determined for the chemotherapeutic agent in the presence or absence of the compound used in the invention and dose modification factors were calculated by dividing the IC50 value of drug without the compound by the IC50 value of the drug with the compound."}, "[6]": {"test_system": "CD34^+++ cells from human cord blood or bone marrow", "assay": "CD34+++ cell differentiation in the presence of cytokines", "format": "cell-based", "details": "0.1 µM-10 µM TER199, erythropoietin 1 unit/ml, IL-3 100 unit/ml"}, "[7]": {"test_system": "bone marrow GM-CFU", "assay": "cyclophosphamide-induced GM-CFU suppression in mice", "format": "in vivo"}, "[8]": {"test_system": "HT4-1 tumors", "assay": "potentiation of melphalan toxicity in vivo, implanted HT4-1 tumors", "parameters": "species or system Male scid mice", "details": "group 5: 5 mg/kg melphalan + 60 mg/kg TER199, seven days; when control tumors reached 1500 mm^3", "procedure": "Male scid mice were subcutaneously implanted with HT4-1 tumors from donor mice. HT4-1 is a subclone of HT-29, a human colon cancer. When tumors reached approximately 100 mm^3, the mice were randomized into six treatment groups and treated for seven days as follows: • 1. 5 mg/kg melphalan; • 2. 10 mg/kg ethacrynic acid; • 3. […] 5 mg/kg melphalan + 10 mg/kg ethacrynic acid; • 5.\nThe mice were monitored for weight changes and tumor volumes were determined by measurement with calipers. The tumor growth was monitored until the average tumor size reached 1500 mm^3 for all groups except melphalan with ethacrynic acid.\nThe results were computed in terms of the tumor volume in the drug treated mice as a percentage of control tumor volume (i.e., in the group administered vehicle alone). In group 1, administered melphalan alone, the tumors were approximately 75% of the volume of controls. […] For group 4 administered a combination of melphalan and ethacrynic acid, the volumes were approximately 35% of control. […] (The volume measurements were taken at the time control tumors reached 1500 mm^3.)"}, "[9]": {"test_system": "HT-29 cells", "assay": "Cytosensor Microphysiometer acidification rates", "format": "cell-based, human", "details": "4 hours pretreatment, TER199 20 µM, ethacrynic acid 50 µM", "procedure": "The metabolic effects related to toxicity of the compounds of the invention on HT-29 cells, were tested using a Cytosensor Microphysiometer made by Molecular Devices, Inc., Menlo Park, CA and described in McConnell, H.M. et al. Science (1992) 257:1906-1912 and by Wada, H.G. et al. AATEX (1992) 1:154-164. Changes in pH of the culture medium are measured as a function of cellular metabolism. Acidification rates of the small volume of liquid flowing over the cells correlate with the number of live cells in the reaction chamber; a reduction of acidification rate reflects reduced numbers of surviving cells. […] The medium was then replaced with serum-free low buffer capacity medium and Microphysiometer analysis was initiated."}, "[10]": {"test_system": "normal BDF1 mouse bone marrow erythroid (BFU-E) progenitor cells", "assay": "colony formation, mouse bone marrow BFU-E", "format": "cell-based", "procedure": "(§2) The effects are dose-dependent, usually in the range of 1.0 to 10.0 µM, and in most cases for cells stimulated by GM-CSF, G-CSF, M-CSF, Flt3/Flk-2 and Steel factor (stem cell factor/c-kit ligand). Of particular interest was the finding that TER199 enhances colony formation stimulated by combinations of cytokines. Additionally, the enhancing effect is more pronounced in human than in murine bone marrow."}, "[11]": {"test_system": "peripheral blood cells", "assay": "effect on peripheral blood counts in rats", "details": "90 mg/kg/day x 5, i.p.", "from_the_text": "Rats were divided into two groups and each group was bled on alternating days. Mean total leukocyte, absolute lymphocyte and absolute neutrophil counts increased over the study period."}, "[12]": {"test_system": "peripheral blood cells", "assay": "peripheral blood response to 5-FU with i.p. TER199 in rats", "format": "in vivo, Sprague-Dawley derived rats", "details": "5-FU 150 mg/kg i.p. day one", "procedure": "Sprague-Dawley derived rats were treated according to the schedule below (Table 11)."}, "[13]": {"test_system": "normal human bone marrow multipotential (CFU-GEMM) progenitor cells", "assay": "colony formation, human bone marrow CFU-GEMM", "format": "cell-based", "details": "EPO + 50 ng/ml SLF", "procedure": "as §2"}, "[14]": {"details": "TER199 150 mg/kg p.o. 24 hours after cisplatin 20 mg/kg i.p."}, "[15]": {"details": "HT4-1, TER199 at 25 µM, TER183 dose not given"}, "[16]": {"details": "TER199 60 mg/kg b.i.d. or 120 mg/kg q.d. i.p. day 2-10"}}, "note": "“And” between values parts separate entries of the source, which are not always exact repeats. Equal values may be shown once. Read-outs that look alike come from different tables or passages of the source."}
{"smiles": "CCOC(=O)[C@@H](N)CCC(=O)N[C@@H](CSCc1ccccc1)C(=O)N[C@@H](C(=O)OCC)c1ccccc1", "note": "[TER199, γE ethyl ester-C(Bz)-R-(-)-ϕG ethyl ester]", "values": [{"measurement": "lymphocytes (Figure 15c)", "setting": "[1]", "result": "no differences were found"}, {"measurement": "monocytes (Figure 15d)", "setting": "[1]", "result": "statistically significant difference only on day 9"}, {"measurement": "neutrophils (Figure 15b)", "setting": "[1]", "result": "statistically significant difference was obtained only on day 9"}, {"measurement": "total white cell counts (Figure 15a)", "setting": "[1]", "result": "essentially no significant difference"}, {"measurement": "carboplatin-induced GM-CFU suppression (Figure 12, panel A)", "setting": "[2]", "result": "reduces carboplatin-induced GM-CFU suppression"}, {"measurement": "GM-CFUs per femur", "setting": "[3]; TER199 60 mg/kg i.p. 24 hours before cisplatin 15 mg/kg i.p.", "result": "62 % of control"}, {"measurement": "GM-CFU", "setting": "[3]; [14]", "result": 40, "unit": "%"}, {"measurement": "increase in GM-CFU versus cisplatin alone", "setting": "[3]; [14]", "result": 2.5, "unit": "fold"}, {"measurement": "GM-CFU", "setting": "[3]; TER199 150 mg/kg p.o. 24 hours before cisplatin 20 mg/kg i.p.", "result": "52 % of control"}, {"measurement": "GM-CFU counts per femur", "setting": "[4]; 60 mg/kg TER199 IP 24 hours after 75 mg/kg 5-FU IP", "result": "greater than control values"}, {"measurement": "number of GM-CFUs per femur compared with fluorouracil alone", "setting": "[4]; 60 mg/kg TER199 IP simultaneously with 75 mg/kg 5-FU IP", "result": "fourfold increase"}, {"measurement": "GM-CFU", "setting": "[4]; TER199 150 mg/kg p.o. 24 hours after 5-FU 75 mg/kg i.p.", "result": "90 % of control"}, {"measurement": "GM-CFU", "setting": "[4]; TER199 150 mg/kg p.o. 24 hours after 5-FU 150 mg/kg i.p.", "result": "71 % of control"}, {"measurement": "GM-CFU by day 4 after 5-FU administration (Figure 9b)", "setting": "[4]; TER199 IP 24 hours after 5-FU", "result": "about twice that of control"}, {"measurement": "effect on GM-CFU (Figure 9c)", "setting": "[4]; TER199 i.p. 24 hours prior to 5-FU", "result": "essentially no effect"}, {"measurement": "survival of tumor cells treated with varying dosages of chlorambucil (Figure 1a)", "setting": "[5]; 25 µM compound added to chlorambucil", "result": "survival rate is markedly diminished"}, {"measurement": "DMF for Doxorubicin", "setting": "[5]; HT4-1, TER199 at 25 µM", "result": 1.20}, {"measurement": "DMF for Adriamycin", "setting": "[5]; [15]", "result": 1.2}, {"measurement": "DMF for Chlorambucil", "setting": "[5]; [15]", "result": 2.39}, {"measurement": "DMF for Mitomycin C", "setting": "[5]; [15]", "result": 1.03}, {"measurement": "survival of HT4-1 cells in the presence of the compound alone (Figure 1b)", "setting": "[5]; HT4-1 cells", "result": "clearly toxic"}, {"measurement": "BFU-E (Figure 16)", "setting": "[6]", "result": "modest positive effects"}, {"measurement": "CFU-GEMM colony formation (Figure 16)", "setting": "[6]; steel factor 50 ng/ml", "result": "modest positive effects"}, {"measurement": "cyclophosphamide-induced GM-CFU suppression (Figure 13, panel A)", "setting": "[7]; TER199 120 mg/kg, i.p. 24 hours after cyclophosphamide 200 mg/kg, i.p.", "result": "reduces GM-CFU suppression"}, {"measurement": "cyclophosphamide-induced GM-CFU suppression (Figure 13, panel B)", "setting": "[7]; TER199 150 mg/kg, p.o.", "result": "similarly effective"}, {"measurement": "tumor volume as a percentage of control tumor volume", "setting": "[8]", "result": "approximately 55%"}, {"measurement": "effect on acidification rates, compound alone (Figure 2)", "setting": "[9]; no chlorambucil", "result": "Neither γE-C(Bz)-ϕG diethylester (TER199) nor ethacrynic acid alone had any appreciable effect"}, {"measurement": "effect of pretreatment on acidification rates with chlorambucil (Figure 2)", "setting": "[9]; then 100 µM chlorambucil", "result": "potentiated the effect of chlorambucil"}, {"measurement": "% change from control", "setting": "[10]; EPO 1 U/ml, TER199 0.1 µM", "result": 0, "unit": "%"}, {"measurement": "Colony number", "setting": "[10]; EPO 1 U/ml, TER199 0.1 µM", "result": "2±1 and 4±1"}, {"measurement": "Colony number", "setting": "[10]; EPO 1 U/ml, TER199 1.0 µM", "result": "2±1 and 3±1"}, {"measurement": "% change from control", "setting": "[10]; EPO 1 U/ml, TER199 10 µM", "result": 0, "unit": "%"}, {"measurement": "Colony number", "setting": "[10]; EPO 1 U/ml, TER199 10 µM", "result": "2±1 and 4±1"}, {"measurement": "Colony number", "setting": "[10]; EPO + 50 ng/ml SLF, TER199 0.1 µM", "result": "8±1 and 9±1"}, {"measurement": "Colony number", "setting": "[10]; EPO + 50 ng/ml SLF, TER199 1.0 µM", "result": "8±1 and 9±1"}, {"measurement": "Colony number", "setting": "[10]; EPO + 50 ng/ml SLF, TER199 10 µM", "result": "8±1 and 9±1"}, {"measurement": "deleterious effects on the animals", "setting": "[11]", "result": "did not appear to have any deleterious effects"}, {"measurement": "levels of circulating white blood cells", "setting": "[11]", "result": "twofold increase"}, {"measurement": "red blood cell or platelet counts", "setting": "[11]; exception: mean decrease in platelet count on day 9", "result": "no significant change"}, {"measurement": "platelet levels (Figure 14)", "setting": "[12]; [16]", "result": "recovered to normal levels by study Day 12"}, {"measurement": "white blood cell, neutrophil, and lymphocyte levels (Figure 14)", "setting": "[12]; [16]", "result": "reached pretest levels sooner than the 5-FU-treated group"}, {"measurement": "red blood cell counts (Figure 14)", "setting": "[12]; TER199 i.p. day 2-10, compared to 5-FU control animals", "result": "observed decrease is reduced"}, {"measurement": "Colony number", "setting": "[13]; TER199 0.1 µM", "result": "12±1 and 19±2"}, {"measurement": "Colony number", "setting": "[13]; TER199 1.0 µM", "result": "17±2 and 23±2"}, {"measurement": "% change from control", "setting": "[13]; TER199 10 µM", "result": "60% and 36%"}, {"measurement": "Colony number", "setting": "[13]; TER199 10 µM", "result": "16±1 and 30±1"}]}
